We go through 46 compounds from US20070088033A1, “Diaryl Substituted Pyridinones” (priority 2002, published 2007).

Read-outs that look alike come from different tables or passages of the source.

The target in one series is T1, human p38 kinase alpha (Homo sapiens, UniProt Q16539).
T1 construct: The coding region of the human p38 cDNA was obtained by PCR-amplification from RNA isolated from the human monocyte cell line THP.1; GST (N); made in house; host or cells: E. coli DH10B
As to the kind of experiment: p38 kinase in vitro assay. The series is classed as biochemical. How it is done:
The ability of compounds to inhibit human p38 kinase alpha was evaluated using two in vitro assay methods. In the first method, activated human p38 kinase alpha phosphorylates a biotinylated substrate, PHAS-I (phosphorylated heat and acid stable protein-insulin inducible), in the presence of gamma ^32p-ATP (^32P-ATP). PHAS-I was biotinylated prior to the assay and provides a means of capturing the substrate, which is phosphorylated during the assay. p38 Kinase was activated by MKK6. Compounds were tested in 10 fold serial dilutions over the range of 100 μM to 0,001 μM using 1% DMSO. Each concentration of inhibitor was tested in triplicate.
All reactions were carried out in 96 well polypropylene plates. Each reaction well contained 25 mM HEPES pH 7.5, 10 mM magnesium acetate and 50 μM unlabeled ATP. […] Activated human p38 kinase alpha was used at 1 μg per 50 μl reaction volume representing a final concentration of 0.3 μM. Gamma ^32P-ATP was used to follow the phosphorylation of PHAS-I. ^32P-ATP has a specific activity of 3000 Ci/mmol and was used at 1.2 μCi per 50 μl reaction volume. The reaction proceeded either for one hour or overnight at 30° C.
Following incubation, 20 μl of reaction mixture was transferred to a high capacity streptavidin coated filter plate (SAM-streptavidin-matrix, Promega) prewetted with phosphate buffered saline, The transferred reaction mix was allowed to contact the streptavidin membrane of the Promega plate for 1-2 minutes. […] Filter plates were air-dried and 20 μl of scintillant was added. The plates were sealed and counted.
A second assay format was also employed that is based on p38 kinase alpha induced phosphorylation of EGFRP (epidermal growth factor receptor peptide, a 21 mer) in the presence ^33P-ATP. Compounds were tested in 10 fold serial dilutions over the range of 100 μM to 0.001 μM in 1% DMSO. Each concentration of inhibitor was tested in triplicate. Compounds were evaluated in 50 μl reaction volumes in the presence of 25 mM Hepes pH 7.5, 10 mM magnesium acetate, 4% glycerol, 0.4% bovine serum albumin, 0.4 mM DTT, 50 μM unlabeled ATP, 25 μg EGFRP (200 μM), and 0.05 μCi ^33p-ATP. Reactions were initiated by addition of 0.09 μg of activated, purified human GST-p38 kinase alpha. Activation was carried out using GST-MKK6 (5:1,p38:MKK6) for one hour at 30° C. in the presence of 50 μM ATP. Following incubation for 60 minutes at room temperature, the reaction was stopped by addition of 150 μl of AG 1×8 resin in 900 mM sodium formate buffer, pH 3.0 (1 volume resin to 2 volumes buffer). The mixture was mixed three times with pipetting and the resin was allowed to settle. A total of 50 μl of clarified solution head volume was transferred from the reaction wells to Microlite-2 plates. 150 μl of Microscint 40 was then added to each well of the Microlite plate, and the plate was sealed, mixed, and counted.

Where [1] appears, read: Table I, average of n trials, n=1 if not reported, read-out: p38 Alpha IC50.
Setting [2] is: Table III, n = number of times assayed, n=1 if not reported, read-out: p38 Alpha IC50.
Setting [3] is: Table II, several values in a cell = repeat determinations, read-out: p38A.

T1 sequence (Q16539 whole entry): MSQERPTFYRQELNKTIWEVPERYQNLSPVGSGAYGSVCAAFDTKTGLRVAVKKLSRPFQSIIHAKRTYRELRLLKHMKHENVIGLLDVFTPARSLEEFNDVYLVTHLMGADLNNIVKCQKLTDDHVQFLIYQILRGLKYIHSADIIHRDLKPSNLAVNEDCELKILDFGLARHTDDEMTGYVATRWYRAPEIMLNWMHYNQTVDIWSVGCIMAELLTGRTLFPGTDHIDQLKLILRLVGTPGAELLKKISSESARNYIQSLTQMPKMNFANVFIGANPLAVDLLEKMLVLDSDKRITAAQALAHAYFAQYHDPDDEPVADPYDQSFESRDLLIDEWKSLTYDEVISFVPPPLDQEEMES

By melting point is commonly meant the temperature of the solid-liquid transition. Turning to `NC(=NO)c1ccc(Cn2ccc(OCc3ccccc3)c(Br)c2=O)cc1` [Example 24, 4-{[4-(benzyloxy)-3-bromo-2-oxopyridin-1(2H)-yl]methyl}-N′-hydroxybenzenecarboximidamide], the melting point lay in the range of 210.2 to 212.2 °C.

For `CCn1ccc(OCc2ccccc2)c(Br)c1=O` [Example 20, 4-(benzyloxy)-3-bromo-1-ethylpyridin-2(1H)-one], the melting point fell in the range of 61.3 to 64.8 °C.

For `O=c1c(Br)c(OCc2ccccc2)ccn1CCc1cccs1` [Example 30, 4-(benzyloxy)-3-bromo-1-(2-thien-2-ylethyl)pyridin-2(1H)-one], the melting point fell in the range of 128 to 129.5 °C.

In turn, `O=c1cc(OCc2ccccc2Cl)ccn1Cc1ccccc1` [Example 42, 1-Benzyl-4-[(2-chlorobenzyl)oxy]pyridin-2(1H)-one] came in with a melting point of 124.6 to 125 °C.

Consider `O=c1c(Br)c(SCc2ccccc2)ccn1Cc1ccccc1` [Example 46], for which the melting point was 180.6 to 182.1 °C.

`O=c1c(Br)c(OCc2ccccc2C(F)(F)F)ccn1Cc1ccccc1` [Example 47, 1-Benzyl-3-bromo-4-{[2-(trifluoromethyl)benzyl]oxy}pyridin-2(1H)-one] gave a melting point of 133.2 to 133.5 °C.

Compound `O=c1c(Br)c(OCc2ccccc2)ccn1CCc1ccsc1` [Example 29, 4-(benzyloxy)-3-bromo-1-(2-thien-3-ylethyl)pyridin-2(1H)-one] displayed a melting point of 134 to 134.3 °C.

Regarding `O=c1c(Br)c(OCc2ccccc2)ccn1Cc1ccc(OCc2ccccc2)cc1` [Example 12, 4-(benzyloxy)-1-[4-(benzyloxy)benzyl]-3-bromopyridin-2(1H)-one], the melting point was 137.6 to 144.3 °C.

Consider `O=c1c(Br)c(O)ccn1Cc1ccc(O)cc1` [Example 21, 3-bromo-4-hydroxy-1-(4-hydroxybenzyl)pyridin-2(1H)-one], for which the melting point was in the range of 102 to 108 °C.

In turn, `O=c1cc(OCc2cccc(Cl)c2)ccn1Cc1ccccc1` [Example 45, 1-Benzyl-4-[(3-chlorobenzyl)oxy]pyridin-2(1H)-one] came in with a melting point of 95.5 to 95.7 °C.

With `Cn1ccc(OCc2ccccc2)c(Br)c1=O` [Example 23, 4-(benzyloxy)-3-bromo-1-methylpyridin-2(1H)-one], the melting point is 61.3 to 64.8 °C.

`O=c1c(Br)c(OCc2ccccc2)ccn1Cc1cccc(C(F)(F)F)c1` [Example 31, 4-(benzyloxy)-3-bromo-1-[3-(trifluoromethyl)benzyl]pyridin-2(1H)-one] came in with a melting point of 181.5 to 181.6 °C.

As to `O=c1cc(OCc2c(Cl)cccc2Cl)ccn1Cc1ccccc1` [Example 40, 1-Benzyl-4-[2,6-(dichlorobenzyl)oxy]pyridin-2(1H)-one], the melting point was in the range of 151.6 to 152 °C.

For `O=C(O)c1ccc(Cn2ccc(OCc3ccccc3)c(Br)c2=O)cc1` [Example 15, 4-{[4-(benzyloxy)-3-bromo-2-oxopyridin-1(2H)-yl]methyl}benzoic acid], the melting point fell in the range of 250.8 to 255.7 °C.

`Cl.O=c1c(Br)c(OCc2ccccc2)ccn1CC1CCCNC1` (stereo not shown) showed a melting point of 138.1 to 139.2 °C.

As for `O=c1c(Br)c(OCc2ccccc2Cl)ccn1Cc1ccccc1` [Example 43, 1-Benzyl-3-bromo-4-[(2-chlorobenzyl)oxy]pyridin-2(1H)-one], the melting point was 143.3 to 145.5 °C.

For `O=c1c(Br)c(OCc2c(Cl)cccc2Cl)ccn1Cc1ccccc1` [Example 461, 1-Benzyl-3-bromo-4-[2,6-(dichlorobenzyl)oxy]pyridin-2(1H)-one], the melting point lay in the range of 156.3 to 157.9 °C.

Take `O=c1c(Br)c(OCc2ccc(F)cc2F)ccn1Cc1ccc(F)cc1F` [JJ]: the IC50 at human p38 kinase alpha (setting [1]) amounted to 0.85 µM.

As for `Cc1ccc(Cn2ccc(OCc3ccccc3)c(Br)c2=O)cc1` [Example 2, 4-(benzyloxy)-3-bromo-1-(4-methylbenzyl)pyridin-2(1H)-one], the melting point fell in the range of 150.4 to 151.2 °C.

For `O=c1c(Br)c(OCc2ccc(F)cc2F)ccn1Cc1ccncc1` [SSSS], the IC50 on human p38 kinase alpha (setting [2]) is 0.141 µM.

Regarding `O=c1c(CO)c(OCc2ccccc2)ccn1Cc1ccccc1` [NNN], the IC50 at human p38 kinase alpha (setting [3]) came to 24.9 µM.

With `O=c1c(Br)c(OCc2ccc(Cl)cc2)ccn1Cc1ccc(Cl)cc1` [OO], the IC50 at human p38 kinase alpha (setting [3]) was found to be 2.46 µM.

Consider `O=c1c(Br)c(OCc2ccc(F)cc2)ccn1Cc1cccc(Cl)c1` [IIIII], for which, on human p38 kinase alpha (setting [2]), the IC50 came out at 1.14 µM.

In the case of `O=c1c(Br)c(OCc2ccccc2)ccn1Cc1ccc(OCc2ccccc2)cc1` [TT], the IC50 at human p38 kinase alpha (setting [3]) came to 1.45 µM.

As to `O=c1c(Br)c(OCc2ccc(F)cc2)ccn1CCCc1ccccc1` [HHH], the IC50 on human p38 kinase alpha (setting [3]) is 18 µM.

In the case of `Cc1cc(OCc2ccc(F)cc2F)c(Br)c(=O)n1Cc1cccnc1` [F], the IC50 at human p38 kinase alpha (setting [1]) amounted to 0.132 µM.

`O=c1c(Br)c(OCc2ccccc2Cl)ccn1Cc1ccccc1` [NN]: on human p38 kinase alpha (setting [3]), the IC50 is 2.03 µM.

`Cc1cccc(C)c1-n1c(C)cc(OCc2c(F)cc(F)cc2F)c(Br)c1=O` [PPPP]: the IC50 on human p38 kinase alpha (setting [2]) is 0.097 µM.

Take `Cc1cc(OCc2ccc(F)cc2F)c(Br)c(=O)n1-c1c(Cl)cccc1Cl` [G]: the IC50 on human p38 kinase alpha (setting [1]) came to 0.179 µM.

Turning to `Cc1cccc(C)c1-n1c(C)cc(OCc2c(F)cccc2F)c(Br)c1=O` [QQQQ], the IC50 at human p38 kinase alpha (setting [2]) stood at 0.199 µM.

With `Cc1ccc(COc2ccn(Cc3ccccc3)c(=O)c2Br)cc1` [QQQQQ], the IC50 on human p38 kinase alpha (setting [2]) turned out to be 1.73 µM.

`Cl.O=c1c(Br)c(OCc2ccccc2)ccn1CC1CCNCC1`: the melting point worked out at 207.9 °C.

For `O=c1c(Br)c(OCc2ccccc2)ccn1Cc1ccc(C(F)(F)F)cc1` [MMM], the IC50 on human p38 kinase alpha (setting [3]) was determined as 1.53 µM.

Consider `O=c1c(Br)c(OCc2ccccc2)ccn1CCc1ccsc1` [QQQ], for which, on human p38 kinase alpha (setting [3]), the IC50 came to 3.31 µM.

Turning to `Cc1cccc(C)c1-n1c(C)cc(OCc2ccc(F)cc2F)c(Br)c1=O` [C], the IC50 on human p38 kinase alpha (setting [1]) came out at 0.0646 µM.

As for `Cc1cc(OCc2ccccc2)c(Br)c(=O)n1Cc1ccccc1` [XX], the IC50 on human p38 kinase alpha (setting [3]) worked out at 0.219 µM.

Consider `O=c1c(Br)c(NCc2ccccc2)ccn1Cc1cccc(F)c1` [HHHHH], for which the IC50 on human p38 kinase alpha (setting [2]) came out at 1.18 µM.

On to `Cc1cc(OCc2c(F)cccc2F)c(Br)c(=O)n1Cc1ccncc1` [EEEEE], for which, on human p38 kinase alpha (setting [2]), the IC50 was 0.684 µM.

With `Cn1ccc(OCc2ccccc2)c(Br)c1=O` [GGG], the IC50 at human p38 kinase alpha (setting [3]) stood at 13.2 µM.

Compound `Cc1ccc(COc2ccn(Cc3ccccc3)c(=O)c2Br)cc1` [Example 44, 1-Benzyl-3-bromo-4-[(4-methylbenzyl)oxy]pyridin-2(1H)-one] yielded a melting point of 149 to 149.7 °C.

In the case of `O=c1cc(OCc2cccc(Cl)c2)ccn1Cc1ccccc1` [XXX], on human p38 kinase alpha (setting [3]), the IC50 worked out at 51.5 µM.

Consider `O=c1c(I)c(OCc2ccc(F)cc2)ccn1Cc1cccc(F)c1` [HH], for which the IC50 at human p38 kinase alpha (setting [1]) worked out at 0.746 µM.

As for `O=c1c(Br)c(OCc2c(Cl)cccc2Cl)ccn1Cc1ccccc1` [VV], the IC50 at human p38 kinase alpha (setting [3]) is 14.3 µM.

Turning to `N#Cc1ccc(Cn2ccc(OCc3ccccc3)c(Br)c2=O)cc1` [CC], the IC50 at human p38 kinase alpha (setting [1]) turned out to be 0.536 µM.

Regarding `Cc1cc(OCc2ccccc2)c(Br)c(=O)n1-c1c(Cl)cccc1Cl` [DD], on human p38 kinase alpha (setting [1]), the IC50 was 0.554 µM.

`Cc1ccc(Cn2ccc(OCc3ccccc3)cc2=O)cc1` [Example 1, 4-(benzyloxy)-1-(4-methylbenzyl)pyridin-2(1H)-one] yielded a melting point of 142.8 to 143.3 °C.
